From ChEMBL document CHEMBL3885881, “DrugMatrix”

Species: Rattus norvegicus
Experiment: DrugMatrix - Regimen: Daily Repeat
Format: toxicity, organism-based, Sprague-Dawley
Set-up: regimen Daily Repeat, gender Male, age 6-8 weeks
Conditions: in vivo, po, route oral GAVAGE, vehicle 100 % WATER; for ABSOLUTE BASOPHIL / ABSOLUTE EOSINOPHIL / ABSOLUTE LYMPHOCYTE / ABSOLUTE MONOCYTE / ABSOLUTE SEGMENTED NEUTROPHIL / BASOPHIL / EOSINOPHIL / ERYTHROCYTE COUNT / HEMATOCRIT / HEMOGLOBIN / LEUKOCYTE COUNT / LYMPHOCYTE / MEAN CORPUSCULAR HEMOGLOBIN / MEAN CORPUSCULAR HEMOGLOBIN CONCENTRATION / MEAN CORPUSCULAR VOLUME / MONOCYTE / NEUTROPHIL / NUCLEATED RED BLOOD CELLS / PLATELET COUNT: tissue Blood; for ALANINE AMINOTRANSFERASE / ALBUMIN / ALKALINE PHOSPHATASE / ASPARTATE AMINOTRANSFERASE / BLOOD UREA NITROGEN / CARBON DIOXIDE / CHLORIDE / CHOLESTEROL / CREATINE PHOSPHOKINASE / CREATININE / GLUCOSE / LACTATE DEHYDROGENASE / LIPASE / PHOSPHORUS / POTASSIUM / SODIUM / TOTAL BILIRUBIN / TOTAL PROTEIN / URIC ACID: tissue Plasma
[1] = 20 mg/kg, 72 h, dose level Low, time 3 day
[2] = 20 mg/kg, 120 h, dose level Low, time 5 day
[3] = 688 mg/kg, 72 h, dose level High, time 3 day
[4] = 688 mg/kg, 120 h, dose level High, time 5 day

Compound: COc1ccc(CN(CCN(C)C)c2ccccn2)cc1 [PYRILAMINE]
- ABSOLUTE BASOPHIL [1]: 0 CELLS/uL
- ABSOLUTE EOSINOPHIL [1]: 0 CELLS/uL
- ABSOLUTE LYMPHOCYTE [1]: 6764.67 CELLS/uL
- ABSOLUTE MONOCYTE [1]: 0 CELLS/uL
- ABSOLUTE SEGMENTED NEUTROPHIL [1]: 435.33 CELLS/uL
- BASOPHIL [1]: 0%
- EOSINOPHIL [1]: 0%
- ERYTHROCYTE COUNT [1]: 5.22 x10E6/uL
- HEMATOCRIT [1]: 33.7%
- HEMOGLOBIN [1]: 13.67 G/DL
- LEUKOCYTE COUNT [1]: 7.2 x10E3/uL
- LYMPHOCYTE [1]: 93.67%
- MEAN CORPUSCULAR HEMOGLOBIN [1]: 26.2 pg
- MEAN CORPUSCULAR HEMOGLOBIN CONCENTRATION [1]: 40.57 G/DL
- MEAN CORPUSCULAR VOLUME [1]: 64.53 fL
- MONOCYTE [1]: 0%
- NEUTROPHIL [1]: 6.33%
- NUCLEATED RED BLOOD CELLS [1]: 0 /100WBC
- PLATELET COUNT [1]: 1037.67 x10E3/uL
- ALANINE AMINOTRANSFERASE [1]: 45.67 u/L
- ALBUMIN [1]: 4.37 G/DL
- ALKALINE PHOSPHATASE [1]: 340.33 u/L
- ASPARTATE AMINOTRANSFERASE [1]: 91.33 u/L
- BLOOD UREA NITROGEN [1]: 16.67 mg/dL
- CARBON DIOXIDE [1]: 33.67 mmol/L
- CHLORIDE [1]: 98.33 MEQ/L
- CHOLESTEROL [1]: 83 mg/dL
- CREATINE PHOSPHOKINASE [1]: 408.33 u/L
- CREATININE [1]: 0.23 mg/dL
- GLUCOSE [1]: 112.67 mg/dL
- LACTATE DEHYDROGENASE [1]: 148.67 u/L
- LIPASE [1]: 10.33 u/L
- PHOSPHORUS [1]: 11.07 mg/dL
- POTASSIUM [1]: 6.81 MEQ/L
- SODIUM [1]: 145.13 MEQ/L
- TOTAL BILIRUBIN [1]: 0.2 mg/dL
- TOTAL PROTEIN [1]: 6.37 G/DL
- URIC ACID [1]: 0.83 mg/dL
- ABSOLUTE BASOPHIL [2]: 0 CELLS/uL
- ABSOLUTE EOSINOPHIL [2]: 0 CELLS/uL
- ABSOLUTE LYMPHOCYTE [2]: 14373.33 CELLS/uL
- ABSOLUTE MONOCYTE [2]: 89.33 CELLS/uL
- ABSOLUTE SEGMENTED NEUTROPHIL [2]: 1937.33 CELLS/uL
- BASOPHIL [2]: 0%
- EOSINOPHIL [2]: 0%
- ERYTHROCYTE COUNT [2]: 5.38 x10E6/uL
- HEMATOCRIT [2]: 33.67%
- HEMOGLOBIN [2]: 13.67 G/DL
- LEUKOCYTE COUNT [2]: 16.4 x10E3/uL
- LYMPHOCYTE [2]: 88.33%
- MEAN CORPUSCULAR HEMOGLOBIN [2]: 25.47 pg
- MEAN CORPUSCULAR HEMOGLOBIN CONCENTRATION [2]: 40.63 G/DL
- MEAN CORPUSCULAR VOLUME [2]: 62.73 fL
- MONOCYTE [2]: 0.67%
- NEUTROPHIL [2]: 11%
- NUCLEATED RED BLOOD CELLS [2]: 0 /100WBC
- PLATELET COUNT [2]: 1183.67 x10E3/uL
- ALANINE AMINOTRANSFERASE [2]: 53.33 u/L
- ALBUMIN [2]: 4.13 G/DL
- ALKALINE PHOSPHATASE [2]: 437.33 u/L
- ASPARTATE AMINOTRANSFERASE [2]: 80.67 u/L
- BLOOD UREA NITROGEN [2]: 17 mg/dL
- CARBON DIOXIDE [2]: 28.67 mmol/L
- CHLORIDE [2]: 104.67 MEQ/L
- CHOLESTEROL [2]: 64.33 mg/dL
- CREATINE PHOSPHOKINASE [2]: 242 u/L
- CREATININE [2]: 0.17 mg/dL
- GLUCOSE [2]: 160 mg/dL
- LACTATE DEHYDROGENASE [2]: 86.33 u/L
- LIPASE [2]: 8.67 u/L
- PHOSPHORUS [2]: 14.2 mg/dL
- POTASSIUM [2]: 6.63 MEQ/L
- SODIUM [2]: 147.07 MEQ/L
- TOTAL BILIRUBIN [2]: 0.17 mg/dL
- TOTAL PROTEIN [2]: 6 G/DL
- URIC ACID [2]: 1.7 mg/dL
- ABSOLUTE BASOPHIL [3]: 0 CELLS/uL
- ABSOLUTE EOSINOPHIL [3]: 0 CELLS/uL
- ABSOLUTE LYMPHOCYTE [3]: 13165.67 CELLS/uL
- ABSOLUTE MONOCYTE [3]: 0 CELLS/uL
- ABSOLUTE SEGMENTED NEUTROPHIL [3]: 1201 CELLS/uL
- BASOPHIL [3]: 0%
- EOSINOPHIL [3]: 0%
- ERYTHROCYTE COUNT [3]: 5.73 x10E6/uL
- HEMATOCRIT [3]: 34.93%
- HEMOGLOBIN [3]: 14.1 G/DL
- LEUKOCYTE COUNT [3]: 14.37 x10E3/uL
- LYMPHOCYTE [3]: 91.67%
- MEAN CORPUSCULAR HEMOGLOBIN [3]: 24.63 pg
- MEAN CORPUSCULAR HEMOGLOBIN CONCENTRATION [3]: 40.37 G/DL
- MEAN CORPUSCULAR VOLUME [3]: 61.07 fL
- MONOCYTE [3]: 0%
- NEUTROPHIL [3]: 8.33%
- NUCLEATED RED BLOOD CELLS [3]: 0 /100WBC
- PLATELET COUNT [3]: 1288.33 x10E3/uL
- ALANINE AMINOTRANSFERASE [3]: 50.67 u/L
- ALBUMIN [3]: 4.27 G/DL
- ALKALINE PHOSPHATASE [3]: 466 u/L
- ASPARTATE AMINOTRANSFERASE [3]: 87.67 u/L
- BLOOD UREA NITROGEN [3]: 12.33 mg/dL
- CARBON DIOXIDE [3]: 34 mmol/L
- CHLORIDE [3]: 100.67 MEQ/L
- CHOLESTEROL [3]: 65.67 mg/dL
- CREATINE PHOSPHOKINASE [3]: 183.33 u/L
- CREATININE [3]: 0.13 mg/dL
- GLUCOSE [3]: 155.33 mg/dL
- LACTATE DEHYDROGENASE [3]: 142 u/L
- LIPASE [3]: 9 u/L
- PHOSPHORUS [3]: 13.33 mg/dL
- POTASSIUM [3]: 6.65 MEQ/L
- SODIUM [3]: 145.23 MEQ/L
- TOTAL BILIRUBIN [3]: 0.1 mg/dL
- TOTAL PROTEIN [3]: 5.8 G/DL
- URIC ACID [3]: 1.7 mg/dL
- ABSOLUTE BASOPHIL [4]: 0 CELLS/uL
- ABSOLUTE EOSINOPHIL [4]: 82 CELLS/uL
- ABSOLUTE LYMPHOCYTE [4]: 13712.5 CELLS/uL
- ABSOLUTE MONOCYTE [4]: 237 CELLS/uL
- ABSOLUTE SEGMENTED NEUTROPHIL [4]: 1918.5 CELLS/uL
- BASOPHIL [4]: 0%
- EOSINOPHIL [4]: 0.5%
- ERYTHROCYTE COUNT [4]: 6.11 x10E6/uL
- HEMATOCRIT [4]: 37.55%
- HEMOGLOBIN [4]: 14.85 G/DL
- LEUKOCYTE COUNT [4]: 15.95 x10E3/uL
- LYMPHOCYTE [4]: 86%
- MEAN CORPUSCULAR HEMOGLOBIN [4]: 24.3 pg
- MEAN CORPUSCULAR HEMOGLOBIN CONCENTRATION [4]: 39.6 G/DL
- MEAN CORPUSCULAR VOLUME [4]: 61.35 fL
- MONOCYTE [4]: 1.5%
- NEUTROPHIL [4]: 12%
- NUCLEATED RED BLOOD CELLS [4]: 0 /100WBC
- PLATELET COUNT [4]: 1201.5 x10E3/uL
- ALANINE AMINOTRANSFERASE [4]: 60.5 u/L
- ALBUMIN [4]: 4.45 G/DL
- ALKALINE PHOSPHATASE [4]: 346.5 u/L
- ASPARTATE AMINOTRANSFERASE [4]: 96 u/L
- BLOOD UREA NITROGEN [4]: 14.5 mg/dL
- CARBON DIOXIDE [4]: 35.5 mmol/L
- CHLORIDE [4]: 99 MEQ/L
- CHOLESTEROL [4]: 60 mg/dL
- CREATINE PHOSPHOKINASE [4]: 292 u/L
- CREATININE [4]: 0.24 mg/dL
- GLUCOSE [4]: 142 mg/dL
- LACTATE DEHYDROGENASE [4]: 333.5 u/L
- LIPASE [4]: 11 u/L
- PHOSPHORUS [4]: 13.2 mg/dL
- POTASSIUM [4]: 6.7 MEQ/L
- SODIUM [4]: 146.5 MEQ/L
- TOTAL BILIRUBIN [4]: 0.15 mg/dL
- TOTAL PROTEIN [4]: 6 G/DL
- URIC ACID [4]: 2 mg/dL
